Data taken from ChEMBL document CHEMBL3885881, “DrugMatrix”.

Species: Rattus norvegicus
Assay: DrugMatrix - Regimen: Daily Repeat
Type: toxicity, organism-based, Sprague-Dawley
Design: regimen Daily Repeat, gender Male, age 6-8 weeks
Details: in vivo, po, 10 mg/kg, route oral GAVAGE, dose level Low, vehicle .5 % CMC; for ABSOLUTE BASOPHIL / ABSOLUTE EOSINOPHIL / ABSOLUTE LYMPHOCYTE / ABSOLUTE MONOCYTE / ABSOLUTE SEGMENTED NEUTROPHIL / BASOPHIL / EOSINOPHIL / ERYTHROCYTE COUNT / HEMATOCRIT / HEMOGLOBIN / LEUKOCYTE COUNT / LYMPHOCYTE / MEAN CORPUSCULAR HEMOGLOBIN / MEAN CORPUSCULAR HEMOGLOBIN CONCENTRATION / MEAN CORPUSCULAR VOLUME / MONOCYTE / NEUTROPHIL / NUCLEATED RED BLOOD CELLS / PLATELET COUNT: tissue Blood; for ALANINE AMINOTRANSFERASE / ALBUMIN / ALKALINE PHOSPHATASE / ASPARTATE AMINOTRANSFERASE / BLOOD UREA NITROGEN / CARBON DIOXIDE / CHLORIDE / CHOLESTEROL / CREATINE PHOSPHOKINASE / CREATININE / GLUCOSE / LACTATE DEHYDROGENASE / LIPASE / PHOSPHORUS / POTASSIUM / SODIUM / TOTAL BILIRUBIN / TOTAL PROTEIN / URIC ACID: tissue Plasma

Cc1ccc(S(=O)(=O)NC(=O)NN2CC3CCCC3C2)cc1 (stereo unspecified) [GLICLAZIDE]
ABSOLUTE BASOPHIL (72 h, time 3 day): 0 CELLS/uL | ABSOLUTE EOSINOPHIL (72 h, time 3 day): 0 CELLS/uL | ABSOLUTE LYMPHOCYTE (72 h, time 3 day): 14055.67 CELLS/uL | ABSOLUTE MONOCYTE (72 h, time 3 day): 174.33 CELLS/uL | ABSOLUTE SEGMENTED NEUTROPHIL (72 h, time 3 day): 3203.33 CELLS/uL | BASOPHIL (72 h, time 3 day): 0% | EOSINOPHIL (72 h, time 3 day): 0% | ERYTHROCYTE COUNT (72 h, time 3 day): 5.24 x10E6/uL | HEMATOCRIT (72 h, time 3 day): 35.87% | HEMOGLOBIN (72 h, time 3 day): 13.1 G/DL | LEUKOCYTE COUNT (72 h, time 3 day): 17.43 x10E3/uL | LYMPHOCYTE (72 h, time 3 day): 80.33% | MEAN CORPUSCULAR HEMOGLOBIN (72 h, time 3 day): 25.37 pg | MEAN CORPUSCULAR HEMOGLOBIN CONCENTRATION (72 h, time 3 day): 36.67 G/DL | MEAN CORPUSCULAR VOLUME (72 h, time 3 day): 70.43 fL | MONOCYTE (72 h, time 3 day): 1% | NEUTROPHIL (72 h, time 3 day): 18.67% | NUCLEATED RED BLOOD CELLS (72 h, time 3 day): 7 /100WBC | PLATELET COUNT (72 h, time 3 day): 1164.33 x10E3/uL | ALANINE AMINOTRANSFERASE (72 h, time 3 day): 49.67 u/L | ALBUMIN (72 h, time 3 day): 4.1 G/DL | ALKALINE PHOSPHATASE (72 h, time 3 day): 346.33 u/L | ASPARTATE AMINOTRANSFERASE (72 h, time 3 day): 96.67 u/L | BLOOD UREA NITROGEN (72 h, time 3 day): 16 mg/dL | CARBON DIOXIDE (72 h, time 3 day): 25 mmol/L | CHLORIDE (72 h, time 3 day): 100.33 MEQ/L | CHOLESTEROL (72 h, time 3 day): 66.67 mg/dL | CREATINE PHOSPHOKINASE (72 h, time 3 day): 653 u/L | CREATININE (72 h, time 3 day): 0.19 mg/dL | GLUCOSE (72 h, time 3 day): 179.33 mg/dL | LACTATE DEHYDROGENASE (72 h, time 3 day): 157.33 u/L | LIPASE (72 h, time 3 day): 10 u/L | PHOSPHORUS (72 h, time 3 day): 13.27 mg/dL | POTASSIUM (72 h, time 3 day): 6.4 MEQ/L | SODIUM (72 h, time 3 day): 142.3 MEQ/L | TOTAL BILIRUBIN (72 h, time 3 day): 0.27 mg/dL | TOTAL PROTEIN (72 h, time 3 day): 5.77 G/DL | URIC ACID (72 h, time 3 day): 2.23 mg/dL | ABSOLUTE BASOPHIL (120 h, time 5 day): 0 CELLS/uL | ABSOLUTE EOSINOPHIL (120 h, time 5 day): 0 CELLS/uL | ABSOLUTE LYMPHOCYTE (120 h, time 5 day): 12400.33 CELLS/uL | ABSOLUTE MONOCYTE (120 h, time 5 day): 0 CELLS/uL | ABSOLUTE SEGMENTED NEUTROPHIL (120 h, time 5 day): 2133 CELLS/uL | BASOPHIL (120 h, time 5 day): 0% | EOSINOPHIL (120 h, time 5 day): 0% | ERYTHROCYTE COUNT (120 h, time 5 day): 5.84 x10E6/uL | HEMATOCRIT (120 h, time 5 day): 35.33% | HEMOGLOBIN (120 h, time 5 day): 14.07 G/DL | LEUKOCYTE COUNT (120 h, time 5 day): 14.53 x10E3/uL | LYMPHOCYTE (120 h, time 5 day): 86% | MEAN CORPUSCULAR HEMOGLOBIN (120 h, time 5 day): 24.13 pg | MEAN CORPUSCULAR HEMOGLOBIN CONCENTRATION (120 h, time 5 day): 39.8 G/DL | MEAN CORPUSCULAR VOLUME (120 h, time 5 day): 60.6 fL | MONOCYTE (120 h, time 5 day): 0% | NEUTROPHIL (120 h, time 5 day): 14% | NUCLEATED RED BLOOD CELLS (120 h, time 5 day): 0 /100WBC | PLATELET COUNT (120 h, time 5 day): 1074.33 x10E3/uL | ALANINE AMINOTRANSFERASE (120 h, time 5 day): 49 u/L | ALBUMIN (120 h, time 5 day): 4.23 G/DL | ALKALINE PHOSPHATASE (120 h, time 5 day): 441 u/L | ASPARTATE AMINOTRANSFERASE (120 h, time 5 day): 113.67 u/L | BLOOD UREA NITROGEN (120 h, time 5 day): 15.33 mg/dL | CARBON DIOXIDE (120 h, time 5 day): 25 mmol/L | CHLORIDE (120 h, time 5 day): 101.33 MEQ/L | CHOLESTEROL (120 h, time 5 day): 63.33 mg/dL | CREATINE PHOSPHOKINASE (120 h, time 5 day): 738.33 u/L | CREATININE (120 h, time 5 day): 0.19 mg/dL | GLUCOSE (120 h, time 5 day): 153.67 mg/dL | LACTATE DEHYDROGENASE (120 h, time 5 day): 958 u/L | LIPASE (120 h, time 5 day): 9 u/L | PHOSPHORUS (120 h, time 5 day): 11.2 mg/dL | POTASSIUM (120 h, time 5 day): 6.16 MEQ/L | SODIUM (120 h, time 5 day): 141.57 MEQ/L | TOTAL BILIRUBIN (120 h, time 5 day): 0.2 mg/dL | TOTAL PROTEIN (120 h, time 5 day): 5.97 G/DL | URIC ACID (120 h, time 5 day): 1.43 mg/dL
